Data as given in US20240174618A1, “SUBSTITUTED (2-HETEROARYLOXYPHENYL)SULFONATES, SALTS THEREOF AND THEIR USE AS HERBICIDAL AGENTS” (Bayer Aktiengesellschaft, priority 2021, published 2024).

Assays:
Format in all cases: in vivo
[1] = tested on: Echinochloa crus-galli (ECHCG); assay: A. Herbicidal pre-emergence efficacy, ECHCG; conditions: scored visually after about 3 weeks vs untreated controls
Outline: (§1)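 Applied before emergence onto covering soil at rates of 1280 g/ha or less, using 600 L/ha spray water with 0.5% additive. Scoring: visual % efficacy after ~3 weeks, greenhouse.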

[2] = tested on: Alopecurus myosuroides (ALOMY); assay: A. Herbicidal pre-emergence efficacy, ALOMY; conditions: scored visually after about 3 weeks vs untreated controls
Outline: as §1

[3] = tested on: Abutilon theophrasti (ABUTH); assay: E. Herbicidal post-emergence efficacy, ABUTH
Outline: (§2)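 Compounds applied at 320 g/ha or less as a foliar spray (600 l/ha, 0.5% additive) to one-leaf-stage greenhouse plants grown in sandy loam. Damage is visually scored in percent relative to untreated plants after about 3 weeks.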

Viola tricolor (VIOTR) = assay: E. Herbicidal post-emergence efficacy, VIOTR
Outline: as §2

Veronica persica (VERPE) = assay: E. Herbicidal post-emergence efficacy, VERPE
Outline: as §2

[4] = tested on: Abutilon theophrasti (ABUTH); assay: B. Herbicidal post-emergence efficacy, ABUTH; conditions: rated visually after about 3 weeks
Outline: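 Post-emergence greenhouse test: one-leaf-stage plants, compound (WP/EC, +0.5% additive, 600 L/ha water, ≤1280 g/ha) applied to green parts; % efficacy scored visually vs untreated after ~3 wk; 100% = plants died.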

Poa annua (POAAN) = assay: A. Herbicidal pre-emergence efficacy, POAAN
Outline: as §1

[5] = tested on: Amaranthus retroflexus (AMARE); assay: C. Herbicidal pre-emergence efficacy, AMARE; conditions: scored after about 3 weeks
Outline: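 Pre-emergence test: formulated compounds sprayed as aqueous suspension or emulsion with 0.5% additive at 600 l/ha onto soil covering sown seeds, at rates corresponding to 320 g/ha or less. After about 3 weeks in greenhouse, efficacy scored visually as percent versus untreated controls (100% = plants dead).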

| Structure (SMILES) | Pre-emergence efficacy against ECHCG ([1]; 80 g/ha) [%] | Pre-emergence efficacy against ECHCG ([1]; 320 g/ha) [%] | Pre-emergence efficacy against ECHCG ([1]; 1280 g/ha) [%] | Pre-emergence efficacy against ALOMY ([2]; 320 g/ha) [%] | Pre-emergence efficacy against ALOMY ([2]; 1280 g/ha) [%] | Post-emergence efficacy against ABUTH in % ([3]; application rate 320 g/ha) [%] | Post-emergence efficacy against VIOTR in % (Viola tricolor (VIOTR); application rate 320 g/ha) [%] | Post-emergence efficacy against VERPE in % (Veronica persica (VERPE); application rate 80 g/ha) [%] | Post-emergence efficacy against VERPE in % (Veronica persica (VERPE); application rate 320 g/ha) [%] | Post-emergence efficacy against ABUTH in % ([4]; 80 g/ha) [%] | Post-emergence efficacy against ABUTH in % ([4]; 320 g/ha) [%] | Post-emergence efficacy against ABUTH in % ([4]; 1280 g/ha) [%] | Pre-emergence efficacy against POAAN (Poa annua (POAAN); dosage 80 g/ha) [%] | Pre-emergence efficacy against POAAN (Poa annua (POAAN); dosage 320 g/ha) [%] | Pre-emergence efficacy against POAAN (Poa annua (POAAN); dosage 1280 g/ha) [%] | Pre-emergence efficacy against AMARE ([5]; 80 g/ha) [%] | Pre-emergence efficacy against AMARE ([5]; 320 g/ha) [%] | Post-emergence efficacy against VIOTR in % (Viola tricolor (VIOTR); application rate 80 g/ha) [%] | Post-emergence efficacy against ABUTH in % ([3]; application rate 80 g/ha) [%] |
| --- | --- | --- | --- | --- | --- | --- | --- | --- | --- | --- | --- | --- | --- | --- | --- | --- | --- | --- | --- |
| O=S(=O)(CCCCl)Oc1ccccc1Oc1ncc(Cl)cn1 [Example I-2] | 90 | 100 | 100 | 100 | 100 | 100 | 100 | 100 | 100 | 100 | 100 | 100 | 100 | 100 | 100 | 100 | 100 |  |  |
| O=S(=O)(CCCCl)Oc1ccccc1Oc1ncc(F)cn1 [Example I-5] |  | 100 | 100 |  | 90 | 90 | 90 | 90 | 100 | 90 | 100 | 100 | 90 | 100 | 100 | 100 | 100 | 80 |  |
| CCCCS(=O)(=O)Oc1ccccc1Oc1ncc(Cl)cn1 [Example I-6] | 100 | 100 | 100 |  | 90 | 90 | 90 | 90 | 90 |  | 90 | 90 |  | 90 | 90 | 100 | 100 | 80 | 80 |
| O=S(=O)(CCC(F)(F)F)Oc1ccccc1Oc1ncc(Cl)cn1 [Example I-8] | 90 | 90 | 100 |  | 90 | 100 | 100 | 90 | 100 |  |  | 90 | 90 | 100 | 100 | 100 | 100 | 80 | 90 |
| O=S(=O)(CCCC(F)(F)F)Oc1ccccc1Oc1ncc(Cl)cn1 [Example I-10] | 100 | 100 | 100 | 90 | 90 | 100 | 100 | 100 | 100 | 90 | 90 | 90 | 100 | 100 | 100 | 100 | 100 | 90 | 90 |
| O=S(=O)(CCCCl)Oc1c(F)cccc1Oc1ncc(Cl)cn1 [Example I-14] | 100 | 100 | 100 | 90 | 100 | 90 | 90 | 100 | 100 | 90 | 100 | 100 | 100 | 100 | 100 | 100 | 100 | 90 |  |
